Assays:
SALL4A = biological target: T1, SALL4A (Homo sapiens, UniProt Q9UJQ4); assay: Immunoblot of endogenous SALL4A in SNU-398 HCC cells; type: cell-based; settings: SNU-398 cells, 24 h, immunoblot quantification
T1 construct: endogenous in cells; host or cells: SNU-398 HCC cells
T1 sequence (Q9UJQ4 1-1053): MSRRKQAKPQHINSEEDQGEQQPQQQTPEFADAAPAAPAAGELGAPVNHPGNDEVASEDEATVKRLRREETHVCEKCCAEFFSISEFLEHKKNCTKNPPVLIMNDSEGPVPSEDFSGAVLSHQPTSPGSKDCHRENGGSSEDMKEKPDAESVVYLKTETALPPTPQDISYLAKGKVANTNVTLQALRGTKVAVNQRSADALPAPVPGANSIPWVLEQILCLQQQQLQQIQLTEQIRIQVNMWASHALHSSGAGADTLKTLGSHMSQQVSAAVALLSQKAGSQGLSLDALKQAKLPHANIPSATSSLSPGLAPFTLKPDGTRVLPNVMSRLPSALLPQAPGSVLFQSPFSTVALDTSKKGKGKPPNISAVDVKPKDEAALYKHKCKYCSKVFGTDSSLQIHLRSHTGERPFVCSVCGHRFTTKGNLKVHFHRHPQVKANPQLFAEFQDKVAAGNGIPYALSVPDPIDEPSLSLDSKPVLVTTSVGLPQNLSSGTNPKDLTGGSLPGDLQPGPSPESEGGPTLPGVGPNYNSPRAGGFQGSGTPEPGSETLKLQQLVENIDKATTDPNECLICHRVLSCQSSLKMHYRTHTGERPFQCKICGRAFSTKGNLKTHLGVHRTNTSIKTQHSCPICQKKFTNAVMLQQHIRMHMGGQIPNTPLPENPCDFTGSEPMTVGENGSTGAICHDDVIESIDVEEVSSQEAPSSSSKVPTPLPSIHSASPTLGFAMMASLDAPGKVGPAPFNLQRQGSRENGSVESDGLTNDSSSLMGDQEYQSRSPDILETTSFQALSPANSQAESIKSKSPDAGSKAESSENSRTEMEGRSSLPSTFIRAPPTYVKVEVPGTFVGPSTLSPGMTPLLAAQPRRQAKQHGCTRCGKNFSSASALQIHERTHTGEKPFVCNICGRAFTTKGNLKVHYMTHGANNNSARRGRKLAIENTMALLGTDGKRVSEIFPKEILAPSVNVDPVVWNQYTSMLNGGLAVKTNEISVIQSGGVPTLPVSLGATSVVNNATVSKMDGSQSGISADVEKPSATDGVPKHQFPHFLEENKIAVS
Experimental: RIPA buffer containing freshly added protease inhibitors (2 mM PMSF) and protease inhibitor cocktail was used for cell lysis. The lysed cells were incubated for 10 min on ice and subsequently centrifuged at 4° C. for 10 min at 14,000 rpm. The protein concentrations of cell lysates were assessed using Bradford Assay as per manufacturer's instructions. The samples were denatured using 4× Sample buffer at 95° C. for 5 min. The samples were size resolved using polyacrylamide gel (8%) and Mini-PROTEAN Tetra Cell module. The size-resolved proteins were transferred onto PVDF via electroblotting using Mini Trans-Blot® module. The membrane was blocked using 5% BSA in TBST. The membrane was incubated with appropriate primary antibody (overnight) and secondary antibody (1 h). Immobilon Crescendo Western HRP substrate was used for signal development and images were acquired using darkroom development techniques.
A head-to-head comparison between the newly discovered SALL4 degrader QE-18-WG07 and IMiDs (Pomalidomide and Thalidomide) was performed. […]

[1] = biological target: T2, SALL4B-Nluc in H1299 cells (Homo sapiens, UniProt Q96SW2+Q9UJQ4); assay: Dual-luciferase SALL4B reporter cellular assay (main screen), Nluc/Fluc ratio; type: cell-based
T2 construct: expressed in transfected cells
T2 sequence (Q9UJQ4 1-616 isoform Q9UJQ4-2): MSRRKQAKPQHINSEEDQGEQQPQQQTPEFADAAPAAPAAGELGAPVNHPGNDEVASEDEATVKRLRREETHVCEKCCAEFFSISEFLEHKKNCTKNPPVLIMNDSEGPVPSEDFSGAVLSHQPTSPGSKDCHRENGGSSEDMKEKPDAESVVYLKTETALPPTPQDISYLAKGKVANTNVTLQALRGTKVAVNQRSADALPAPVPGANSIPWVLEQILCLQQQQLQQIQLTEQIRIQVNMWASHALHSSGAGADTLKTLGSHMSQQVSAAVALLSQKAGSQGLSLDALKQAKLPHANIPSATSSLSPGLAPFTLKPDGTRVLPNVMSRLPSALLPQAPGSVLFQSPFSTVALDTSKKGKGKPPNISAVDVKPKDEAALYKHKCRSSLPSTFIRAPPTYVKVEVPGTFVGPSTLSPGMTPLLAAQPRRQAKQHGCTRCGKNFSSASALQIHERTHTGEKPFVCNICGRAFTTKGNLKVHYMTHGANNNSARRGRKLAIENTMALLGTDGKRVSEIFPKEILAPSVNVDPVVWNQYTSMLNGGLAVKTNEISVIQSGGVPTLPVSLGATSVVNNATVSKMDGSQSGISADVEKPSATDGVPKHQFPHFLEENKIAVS
T2 sequence (Q96SW2 whole entry): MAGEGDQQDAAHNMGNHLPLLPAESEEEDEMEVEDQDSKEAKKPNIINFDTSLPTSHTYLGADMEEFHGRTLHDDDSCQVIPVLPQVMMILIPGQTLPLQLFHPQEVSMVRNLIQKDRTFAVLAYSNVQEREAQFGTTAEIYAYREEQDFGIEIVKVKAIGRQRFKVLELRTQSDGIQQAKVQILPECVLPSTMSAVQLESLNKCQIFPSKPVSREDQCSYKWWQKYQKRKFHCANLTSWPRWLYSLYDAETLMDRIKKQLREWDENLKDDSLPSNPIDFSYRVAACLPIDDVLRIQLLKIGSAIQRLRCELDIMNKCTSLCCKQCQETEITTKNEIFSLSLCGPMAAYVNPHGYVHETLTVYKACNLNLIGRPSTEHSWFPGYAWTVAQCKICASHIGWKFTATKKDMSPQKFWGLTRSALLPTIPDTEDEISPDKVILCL
T2 sequence (Q16531 whole entry partner): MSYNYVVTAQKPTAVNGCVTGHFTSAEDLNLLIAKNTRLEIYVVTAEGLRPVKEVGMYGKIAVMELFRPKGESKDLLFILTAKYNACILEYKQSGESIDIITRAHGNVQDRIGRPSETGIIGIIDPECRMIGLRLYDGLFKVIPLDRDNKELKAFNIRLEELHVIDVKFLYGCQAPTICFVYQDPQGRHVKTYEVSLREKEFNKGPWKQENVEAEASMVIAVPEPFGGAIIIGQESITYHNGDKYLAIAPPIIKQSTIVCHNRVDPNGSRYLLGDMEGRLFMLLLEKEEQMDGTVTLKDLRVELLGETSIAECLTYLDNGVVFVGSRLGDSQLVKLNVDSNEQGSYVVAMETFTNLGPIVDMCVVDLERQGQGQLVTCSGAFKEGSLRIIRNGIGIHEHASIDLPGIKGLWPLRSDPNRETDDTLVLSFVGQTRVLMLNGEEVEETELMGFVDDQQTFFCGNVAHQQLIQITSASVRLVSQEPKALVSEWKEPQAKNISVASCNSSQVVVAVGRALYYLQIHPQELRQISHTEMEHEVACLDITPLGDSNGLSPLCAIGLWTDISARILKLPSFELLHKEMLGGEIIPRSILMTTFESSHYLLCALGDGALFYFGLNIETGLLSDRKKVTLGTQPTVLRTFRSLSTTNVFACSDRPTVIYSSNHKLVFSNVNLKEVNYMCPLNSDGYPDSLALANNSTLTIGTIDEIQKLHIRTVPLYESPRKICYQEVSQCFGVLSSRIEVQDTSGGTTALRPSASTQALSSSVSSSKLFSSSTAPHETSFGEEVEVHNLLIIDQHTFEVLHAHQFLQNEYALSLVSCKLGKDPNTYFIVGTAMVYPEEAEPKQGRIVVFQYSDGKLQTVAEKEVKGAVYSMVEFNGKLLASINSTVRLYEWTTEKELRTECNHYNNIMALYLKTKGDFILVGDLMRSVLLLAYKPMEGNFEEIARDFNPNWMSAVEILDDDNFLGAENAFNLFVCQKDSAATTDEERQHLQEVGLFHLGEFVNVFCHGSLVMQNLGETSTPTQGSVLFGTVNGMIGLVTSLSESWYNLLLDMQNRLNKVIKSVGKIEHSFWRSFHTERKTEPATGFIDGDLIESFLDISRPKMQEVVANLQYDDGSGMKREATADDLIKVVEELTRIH
Text: SALL4A or SALL4B was cloned into the dual-luciferase plasmid (pLL3.7-EF1a-IRES-Gateway-nluc-2xHA-IRES2-fluc-hCL1-P2A-Puro from Prof. William G. Kaelin group) to create a stable cell line (H1299, SALL4 negative) that ectopically express the SALL4A or B-NanoLuc fusion protein. SALL4A or B fused to nanoluciferase (Nluc) was expressed in a multicistronic mRNA with control firefly luciferase (Fluc). The measurement of Nluc/Fluc ratio enabled the determination of SALL4 fusion protein degradation relative to the internal Fluc control, independent of effects on transcription (FIG. 1A-B).
The assay was performed as described in Example 1 except in a 1,536-well plate which allows HTS of thermal shift hits from the primary screen, searching for SALL4 small molecule binders that can degrade the oncogenic SALL4B isoform. H1299 cells that stably express SALL4A/B_Nluc_Fluc were seeded in a 1,536-well clear bottom white plate (Corning) at 2,000 cells per well in RPMI medium (6 μL) and grown overnight (16 h) at 37° C., 5% CO2. Cells were treated with 8 μM of compounds for 6 h. Nano-Glo® Dual-Luciferase® Reporter Assay System and Pherastar plate reader were used for measuring the luciferase signal, following the manufacturer's instruction. For data analysis, the Nanoluc luminescence is normalized to firefly luciferase reading and then compared to the DMSO control. The screen was performed in triplicates.
The inventors treated H1299 cells overexpressing SALL4B_Nluc and the HCC (SNU-398, SNU-182) and NSCLC cells (H661) with increasing concentrations of QE-18-WG07 and IMiDs, and assayed the SALL4B_Nluc, as well as the endogenous SALL4A and B levels by immunoblots described in Example 4.

COc1ccccc1NC(=O)Nc1ccc([N+](=O)[O-])cc1O [QE-18-WG07]
DC50 (SALL4A): ~4.23 µM | Dmax (SALL4A): 57% | main screen readout ([1]; 8 μM, 6 h, H1299 cells overexpressing SALL4B fused with Nluc): −31 | Dmax ([1]; NCI-H1299, SALL4B dual-luciferase reporter assay, 9 hours of treatment, read-out: maximum degradation (Dmax) of SALL4B_Nluc): 75% | reduction in the amount of SALL4B protein ([1]; after 6 h of incubation in H1299 cells overexpressing SALL4B fused with Nluc): 31% | SALL4B_Luc Reporter Assay % SALL4B Downregulation ([1]; normalized to DMSO control, mean ± SD (n = 3), 8 μM, 6 h treatment, H1299 cells): 29.8 ± 1.8%
